Data as given in patent publication US20230158157A1, “POTENT AND SELECTIVE DEGRADERS OF ALK” (DANA-FARBER CANCER INSTITUTE, INC., priority 2020, published 2023).
Where two headings read alike, the source gives them in different places. Blank lines part the entries; values can stand above or below the compound they belong to.

Assays:
Type in all cases: cell-based
FAK = target: T1, FAK (Homo sapiens, UniProt Q05397); assay: FAK degradation (H3122 cells); details: for Dmax: NCI-H3122, Table 3
T1 construct: FAK Degradation; endogenous in cells; host or cells: H3122
T1 sequence (Q05397 whole entry): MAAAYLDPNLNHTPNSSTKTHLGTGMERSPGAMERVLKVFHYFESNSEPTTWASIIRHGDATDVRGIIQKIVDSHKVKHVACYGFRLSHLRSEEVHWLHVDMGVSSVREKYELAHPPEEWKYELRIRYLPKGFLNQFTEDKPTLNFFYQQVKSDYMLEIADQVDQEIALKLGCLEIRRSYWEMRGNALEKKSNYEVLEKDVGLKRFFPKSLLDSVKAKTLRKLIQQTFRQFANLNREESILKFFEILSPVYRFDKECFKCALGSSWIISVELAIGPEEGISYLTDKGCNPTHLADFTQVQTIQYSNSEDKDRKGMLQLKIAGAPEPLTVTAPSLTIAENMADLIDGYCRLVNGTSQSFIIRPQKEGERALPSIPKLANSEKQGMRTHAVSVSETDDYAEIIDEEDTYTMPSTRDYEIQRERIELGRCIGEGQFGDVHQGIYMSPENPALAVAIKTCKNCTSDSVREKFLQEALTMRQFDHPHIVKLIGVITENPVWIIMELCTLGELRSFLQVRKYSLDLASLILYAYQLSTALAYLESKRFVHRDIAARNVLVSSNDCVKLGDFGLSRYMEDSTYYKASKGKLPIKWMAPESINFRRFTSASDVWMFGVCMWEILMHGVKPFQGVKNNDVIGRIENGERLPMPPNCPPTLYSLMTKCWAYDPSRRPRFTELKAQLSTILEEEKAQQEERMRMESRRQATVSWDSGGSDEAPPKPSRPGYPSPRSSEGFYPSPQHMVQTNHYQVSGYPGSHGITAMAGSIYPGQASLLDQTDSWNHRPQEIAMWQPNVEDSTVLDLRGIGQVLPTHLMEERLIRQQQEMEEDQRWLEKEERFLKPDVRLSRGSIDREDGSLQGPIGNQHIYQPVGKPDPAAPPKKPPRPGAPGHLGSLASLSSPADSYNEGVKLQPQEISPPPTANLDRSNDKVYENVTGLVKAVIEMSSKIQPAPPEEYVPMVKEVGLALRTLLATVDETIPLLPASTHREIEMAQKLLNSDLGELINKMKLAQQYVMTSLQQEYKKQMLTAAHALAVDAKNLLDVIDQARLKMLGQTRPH

H3122 cells = assay: CTG; details: read-out: CTG IC50
EML4-ALK = target: T2, EML4-ALK (Homo sapiens, UniProt Q9UM73); assay: EML4-ALK HiBit degradation assay in CRISPR-tagged H3122 cells (Nano-Glo HiBit Lytic Detection)
T2 construct: endogenous in cells; host or cells: H3122 (NSCLC), single-cell clone after CRISPR knock-in of HiBit; the other entry of the earlier key: EML4 (Q9HC35, Echinoderm microtubule-associated protein-like 4)
T2 sequence (Q9UM73 with tags, fused parts or gaps): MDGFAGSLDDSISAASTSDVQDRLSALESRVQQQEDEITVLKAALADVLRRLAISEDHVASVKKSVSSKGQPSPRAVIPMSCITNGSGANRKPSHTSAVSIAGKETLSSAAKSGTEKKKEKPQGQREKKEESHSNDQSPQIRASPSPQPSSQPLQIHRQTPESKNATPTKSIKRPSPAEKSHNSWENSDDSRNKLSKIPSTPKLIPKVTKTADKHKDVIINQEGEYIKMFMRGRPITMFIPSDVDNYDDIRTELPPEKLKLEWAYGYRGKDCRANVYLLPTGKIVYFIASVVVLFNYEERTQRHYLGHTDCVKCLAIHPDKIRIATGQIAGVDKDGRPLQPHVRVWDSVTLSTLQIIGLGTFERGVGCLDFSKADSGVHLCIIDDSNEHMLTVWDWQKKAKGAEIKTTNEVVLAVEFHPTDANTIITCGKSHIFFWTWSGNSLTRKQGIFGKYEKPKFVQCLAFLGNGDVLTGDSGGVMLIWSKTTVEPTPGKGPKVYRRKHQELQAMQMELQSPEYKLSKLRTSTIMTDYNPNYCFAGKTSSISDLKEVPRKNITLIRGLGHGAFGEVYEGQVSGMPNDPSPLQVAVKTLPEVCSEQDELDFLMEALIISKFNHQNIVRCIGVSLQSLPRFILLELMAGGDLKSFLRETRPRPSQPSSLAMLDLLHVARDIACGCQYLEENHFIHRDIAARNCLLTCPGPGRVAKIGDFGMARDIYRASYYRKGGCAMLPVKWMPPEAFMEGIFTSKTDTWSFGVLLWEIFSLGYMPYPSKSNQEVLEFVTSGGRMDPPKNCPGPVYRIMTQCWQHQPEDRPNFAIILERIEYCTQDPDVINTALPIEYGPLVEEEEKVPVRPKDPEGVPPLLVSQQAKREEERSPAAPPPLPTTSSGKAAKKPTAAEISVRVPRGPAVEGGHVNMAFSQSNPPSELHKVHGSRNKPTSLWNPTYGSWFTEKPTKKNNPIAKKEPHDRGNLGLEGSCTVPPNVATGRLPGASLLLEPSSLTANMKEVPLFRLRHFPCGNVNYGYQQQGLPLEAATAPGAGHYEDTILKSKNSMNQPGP

[1] = Table 3, H3122 cells, 16 hours, read-out: ALK Degradation (H3122 cells) DC50
[2] = Homo sapiens, NCI-H3122, Table 1
[3] = NCI-H3122, Table 1, first Dmax column, H3122 EML4-ALK-HiBit, 16 hours, read-out: Degradation Dmax
[4] = NCI-H3122, Table 1, average Dmax, read-out: Degradation Avg. Dmax
[5] = Table 1, first DC50 column, H3122 EML4-ALK-HiBit, 16 hours, read-out: Degradation DC50
[6] = Table 1, average DC50, read-out: Degradation Avg. DC50
[7] = Homo sapiens, NCI-H3122, Table 3
[8] = NCI-H3122, Table 3, H3122 cells, 16 hours, read-out: ALK Degradation (H3122 cells) Dmax

- DC50 (FAK; Table 3): 10 nM
- FAK Degradation (H3122 cells) Dmax (FAK; Table 3): 70%
- IC50 (H3122 cells; Table 3): 42 nM
- ALK Degradation (H3122 cells) Dmax (EML4-ALK; Table 3, H3122 cells, 16 hours): 43%
- DC50 (EML4-ALK; [1]): 9 nM
SMILES: COc1cc(N2CCC(NC(=O)CCCCCCCCCC(=O)N[C@H](C(=O)N3C[C@H](O)C[C@H]3C(=O)NCc3ccc(-c4scnc4C)cc3)C(C)(C)C)CC2)ccc1Nc1ncc(Cl)c(Nc2ccccc2P(C)(C)=O)n1 [SIAIS117]

- IC50 (H3122 cells; [2]): 176 nM
- Dmax (EML4-ALK; [3]): 56.2%
- Dmax (EML4-ALK; [4]): 56.2%
- DC50 (EML4-ALK; [5]): 626 nM
- DC50 (EML4-ALK; [6]): 626 nM
SMILES: COc1cc(CCN(C)C(=O)CCCCCCCC(=O)N[C@H](C(=O)N2C[C@H](O)C[C@H]2C(=O)N[C@@H](C)c2ccc(-c3scnc3C)cc2)C(C)(C)C)c(C)cc1Nc1ncc(Cl)c(Nc2ccccc2S(=O)(=O)C(C)C)n1 [compound 41, N^1-(4-((5-chloro-4-((2-(isopropylsulfonyl)phenyl)amino)pyrimidin-2-yl)amino)-5-methoxy-2-methylphenethyl)-N^9-((S)-1-((2S,4R)-4-hydroxy-2-(((S)-1-(4-(4-methylthiazol-5-yl)phenyl)ethyl)carbamoyl)pyrrolidin-1-yl)-3,3-dimethyl-1-oxobutan-2-yl)-N^1-methylnonanediamide]

- IC50 (H3122 cells; [2]): 1310 nM
- Dmax (EML4-ALK; [3]): 47.3%
- Dmax (EML4-ALK; [4]): 47.3%
- DC50 (EML4-ALK; [5]): 777 nM
- DC50 (EML4-ALK; [6]): 777 nM
SMILES: COc1cc(CCN(C)C(=O)CCCCCCCCC(=O)N[C@H](C(=O)N2C[C@H](O)C[C@H]2C(=O)N[C@@H](C)c2ccc(-c3scnc3C)cc2)C(C)(C)C)c(C)cc1Nc1ncc(Cl)c(Nc2ccccc2S(=O)(=O)C(C)C)n1 [compound 42, N^1-(4-((5-chloro-4-((2-(isopropylsulfonyl)phenyl)amino)pyrimidin-2-yl)amino)-5-methoxy-2-methylphenethyl)-N^10-((S)-1-((2S,4R)-4-hydroxy-2-(((S)-1-(4-(4-methylthiazol-5-yl)phenyl)ethyl)carbamoyl)pyrrolidin-1-yl)-3,3-dimethyl-1-oxobutan-2-yl)-N^1-methyldecanediamide]

- IC50 (H3122 cells; [2]): 67.7 nM
- Dmax (EML4-ALK; [3]): 54.8%
- Dmax (EML4-ALK; NCI-H3122, Table 1, second Dmax column, H3122 EML4-ALK-HiBit, 16 hours, read-out: Degradation Dmax): 49.4%
- Dmax (EML4-ALK; [4]): 52.1%
- DC50 (EML4-ALK; [5]): 214 nM
- DC50 (EML4-ALK; Table 1, second DC50 column, H3122 EML4-ALK-HiBit, 16 hours, read-out: Degradation DC50): 107 nM
- DC50 (EML4-ALK; [6]): 160 nM
SMILES: COc1cc(CCN(C)C(=O)CCOCCC(=O)N[C@H](C(=O)N2C[C@H](O)C[C@H]2C(=O)N[C@@H](C)c2ccc(-c3scnc3C)cc2)C(C)(C)C)c(C)cc1Nc1ncc(Cl)c(Nc2ccccc2S(=O)(=O)C(C)C)n1 [compound 52, (2S,4R)-1-((S)-2-(3-(3-((4-((5-chloro-4-((2-(isopropylsulfonyl)phenyl)amino)pyrimidin-2-yl)amino)-5-methoxy-2-methylphenethyl)(methyl)amino)-3-oxopropoxy)propanamido)-3,3-dimethylbutanoyl)-4-hydroxy-N-((S)-1-(4-(4-methylthiazol-5-yl)phenyl)ethyl)pyrrolidine-2-carboxamide]

- IC50 (H3122 cells; Homo sapiens, NCI-H3122, Table 2): 222 nM
- Dmax (EML4-ALK; NCI-H3122, Table 2, first Dmax column, H3122 EML4-ALK-HiBit, 16 hours, read-out: Degradation Dmax): 50.9%
- Dmax (EML4-ALK; NCI-H3122, Table 2, second Dmax column, H3122 EML4-ALK-HiBit, 16 hours, read-out: Degradation Dmax): 43.7%
- Dmax (EML4-ALK; NCI-H3122, Table 2, average Dmax, read-out: Degradation Avg. Dmax): 47.3%
- DC50 (EML4-ALK; Table 2, first DC50 column, H3122 EML4-ALK-HiBit, 16 hours, read-out: Degradation DC50): 543 nM
- DC50 (EML4-ALK; Table 2, second DC50 column, H3122 EML4-ALK-HiBit, 16 hours, read-out: Degradation DC50): 150 nM
- DC50 (EML4-ALK; Table 2, average DC50, read-out: Degradation Avg. DC50): 350 nM
SMILES: COc1cc(CCN(C)C(=O)CCOCCC(=O)N[C@H](C(=O)N2C[C@H](O)C[C@H]2C(=O)N[C@@H](C)c2ccc(-c3scnc3C)cc2)C(C)(C)C)c(C)cc1Nc1ncc(Cl)c(Nc2ccccc2P(C)(C)=O)n1 [compound 71, (2S,4R)-1-((S)-2-(3-(3-((4-((5-chloro-4-((2-(dimethylphosphoryl)phenyl)amino)pyrimidin-2-yl)amino)-5-methoxy-2-methylphenethyl)(methyl)amino)-3-oxopropoxy)propanamido)-3,3-dimethylbutanoyl)-4-hydroxy-N-((S)-1-(4-(4-methylthiazol-5-yl)phenyl)ethyl)pyrrolidine-2-carboxamide]

SMILES: COc1cc(CCNCCCCCC#Cc2cccc3c2CN(C2CCC(=O)NC2=O)C3=O)c(C)cc1Nc1ncc(Cl)c(Nc2ccccc2S(=O)(=O)C(C)C)n1 (stereo not drawn) [compound 91, 3-(4-(7-((4-((5-chloro-4-((2-(isopropylsulfonyl)phenyl)amino)pyrimidin-2-yl)amino)-5-methoxy-2-methylphenethyl)amino)hept-1-yn-1-yl)-1-oxoisoindolin-2-yl)piperidine-2,6-dione]
- Dmax (FAK): 85%
- DC50 (FAK; Table 3): 4 nM
- IC50 (H3122 cells; [7]): 50 nM

- Dmax (FAK): 93%
- DC50 (FAK; Table 3): 4 nM
- IC50 (H3122 cells; [7]): 50 nM
SMILES: COc1cc(CCNCCCCCC#Cc2ccc3c(c2)CN(C2CCC(=O)NC2=O)C3=O)c(C)cc1Nc1ncc(Cl)c(Nc2ccccc2S(=O)(=O)C(C)C)n1 (stereo not drawn) [compound 92]

SMILES: COc1cc(C2CCN(CCCCCC#Cc3cccc4c3C(=O)N(C3CCC(=O)NC3=O)C4=O)CC2)c(C)cc1Nc1ncc(Cl)c(Nc2ccccc2S(=O)(=O)C(C)C)n1 (stereo not drawn) [compound 93, 4-(7-(4-(4-((5-chloro-4-((2-(isopropylsulfonyl)phenyl)amino)pyrimidin-2-yl)amino)-5-methoxy-2-methylphenyl)piperidin-1-yl)hept-1-yn-1-yl)-2-(2,6-dioxopiperidin-3-yl)isoindoline-1,3-dione]
- Dmax (FAK): 89%
- DC50 (FAK; Table 3): 24 nM
- IC50 (H3122 cells; [7]): 202 nM
- Dmax (EML4-ALK; [8]): 82%
- DC50 (EML4-ALK; [1]): 49 nM

- Dmax (FAK): 86%
SMILES: COc1cc(C2CCN(CCCCCC#Cc3cccc4c3CN(C3CCC(=O)NC3=O)C4=O)CC2)c(C)cc1Nc1ncc(Cl)c(Nc2ccccc2S(=O)(=O)C(C)C)n1 (stereo not drawn) [compound 94, 3-(4-(7-(4-(4-((5-chloro-4-((2-(isopropylsulfonyl)phenyl)amino)pyrimidin-2-yl)amino)-5-methoxy-2-methylphenyl)piperidin-1-yl)hept-1-yn-1-yl)-1-oxoisoindolin-2-yl)piperidine-2,6-dione]

SMILES: COc1cc(C2CCN(CCCCC#Cc3cccc4c3CN(C3CCC(=O)NC3=O)C4=O)CC2)c(C)cc1Nc1ncc(Cl)c(Nc2ccccc2S(=O)(=O)C(C)C)n1 (stereo not drawn) [compound 95, 3-(4-(6-(4-(4-((5-chloro-4-((2-(isopropylsulfonyl)phenyl)amino)pyrimidin-2-yl)amino)-5-methoxy-2-methylphenyl)piperidin-1-yl)hex-1-yn-1-yl)-1-oxoisoindolin-2-yl)piperidine-2,6-dione]
- Dmax (FAK): 89%
- DC50 (FAK; Table 3): 1 nM
- IC50 (H3122 cells; [7]): 4 nM
- Dmax (EML4-ALK; [8]): 73%
- DC50 (EML4-ALK; [1]): 1 nM

- Dmax (FAK): 80%
- DC50 (FAK; Table 3): 8 nM
SMILES: COc1cc(C2CCN(CC#Cc3ccc4c(c3)CN(C3CCC(=O)NC3=O)C4=O)CC2)c(C)cc1Nc1ncc(Cl)c(Nc2ccccc2S(=O)(=O)C(C)C)n1 (stereo not drawn) [compound 97, 3-(5-(3-(4-(4-((5-chloro-4-((2-(isopropylsulfonyl)phenyl)amino)pyrimidin-2-yl)amino)-5-methoxy-2-methylphenyl)piperidin-1-yl)prop-1-yn-1-yl)-1-oxoisoindolin-2-yl)piperidine-2,6-dione]
